“Also recorded” adds a separate entry of the source.
How the values were obtained:
HDAC4/5/7 [1] = experiment: Immunoblot of HDAC phosphorylation in primary hepatocytes treated with A769662; type: cell-based, mouse; details: 1 hr, particularly on the Ser498 sites
Experimental: (F) Lysates from primary hepatocytes treated with either AMPK agonist A769662 or Vehicle (DMSO) for 1 hr and immunoblotted with indicated antibodies.
(§1) Primary hepatocytes were derived from C57BL/6J mice and maintained in serum free Media 199. Cells were transduced 24 hrs after harvesting. Knock-down and over-expression studies in hepatocytes were done by infecting cells at 5 PFUs/cell. All adenoviral shRNA knockdowns were carried out for 72 hrs. For subcellular fractionation, cells were treated as indicated, washed 3 times with PBS and lysed utilizing NE-PER Cell Fractionation Kit (Pierce). Primary hepatocytes were treated with 10 uM Forksolin (Sigma) and 100 nM Glucagon (Novo Nordisk), 100 nM insulin (Lilly) at indicated times.

G6PAse and PEPCK mRNA = experiment: qPCR of G6PAse and PEPCK mRNA in primary hepatocytes pre-treated with MC1568; type: cell-based, mouse; details: 5 uM MC1568 for 14 hours, then 10 uM Forskolin or 100 nM Glucagon for 4 hrs; normalized to cyclophilin
Experimental: (§2) Blood glucose was measured on mice fasted for 22 hours (4 hrs following the final treatment).
as §1
mRNA from primary hepatocytes was isolated using RNAeasy (Qiagen) kit and reverse transcribed using SuperScript II Reverse Transcriptase. Three samples/mice were used per condition and qPCR was done in technical triplicate for each sample. qPCR reaction was carried out using Syber GreenER (Invitrogen). All qPCR results are representative of 3 separate experiments.

db/db mice = experiment: Blood glucose in db/db mice treated with MC1568; type: in vivo, mouse; details: 50 mg/kg intraperitoneally once a day for 4 days, fasted for 22 hours (4 hrs after final treatment)
Experimental: as §2

HDAC4/5/7 [2] = experiment: Immunoblot of HDAC phosphorylation in livers of metformin-treated mice; type: in vivo; details: mouse liver, 250 mg/kg metformin intraperitoneally for 1 h
Experimental: (D) Immunoblot of lysates from murine livers from LKB1+/+ or LKB1lox/lox mice deleted for hepatic LKB1 and treated with either 250 mg/kg metformin, or saline alone for 1 h.
To induce Cre-mediated deletion in Albumin-creERT2 mice, mice were intraperitoneally injected with 1 mg/mouse of Tamoxifen (SIGMA) for 5 consecutive days. Ad-Cre mediated deletion in LBK1lox/lox mice was done by tail vein injection of 1×10^9 PFUs/mouse in 8 week old males (FIG. 1D). […] For metformin experiments, mice injected intraperitoneally with 250 mg/kg Metformin in 0.9% saline for 1 h.

HDACs4/5 = experiment: Immunoblot of HDAC phosphorylation in HepG2 or Huh7 cells treated with phenformin; type: cell-based, human; details: 2 mM Phenformin for 1 hr
Experimental: (C) Lysates of HepG2 or Huh7 cells transfected with indicated siRNA pools and treated with either 2 mM Phenformin or vehicle for 1 hr and subjected to immunoblotting.
(§3) HEK293T, Huh7, HepG2, C2C12, and U2OS cells were obtained from ATCC. RNAi SMARTpool human LKB1 (Dharmacon) or RNAi negative control (Invitrogen) used at 20 nM final concentration and transfected using RNAiMAX transfection reagent (Invitrogen). Knockdowns were carried out for 72 hrs. Cells were treated with 1 uM TSA or 10 mM NAM (Sigma), Cells were treated with 2 mM AICAR (Toronto Research Chemicals) or 2 mM Phenformin (Sigma).

FOXO1 = FOXO1 acetylation immunoblot in HEK293T cells treated with TSA; type: cell-based; details: HEK293T cells with Myc-Foxo1 WT, 1 uM TSA for 2 h
Experimental: (C) HEK293T cells were transfected with Myc-Foxo1 WT construct and cells were treated with 1 uM TSA and/or 10 mM NAM for 2 h. Cell lysates were immunoblotted with indicated antibodies.
as §3

HDAC4/5/7 [3] = experiment: Immunoblot of HDAC phosphorylation in primary mouse hepatocytes treated with glucagon or forskolin; type: cell-based; details: 100 nM glucagon or 10 uM forskolin
GFP-HDAC5 = GFP-HDAC5 nuclear translocation in primary mouse hepatocytes (confocal microscopy); type: cell-based; details: 100 nM glucagon
[4] = tested on: endogenous Class IIa HDACs; experiment: Subcellular fractionation of primary hepatocytes; type: cell-based, mouse; details: 100 nM Glucagon or 10 uM Forskolin for 1 h
HDAC4/5/7 [5] = experiment: Immunoblot of HDAC phosphorylation in liver lysates of glucagon-injected mice; type: in vivo, mouse; details: mice starved 6 h, glucagon for 45 minutes
Experimental: (A) Mice were starved for 6 h and then treated with saline, glucagon (Gluca) for 45 minutes, or refed for 3 h. Liver lysates were immunoblotted with indicated antibodies.

N#Cc1c(O)c2c(-c3ccc(-c4ccccc4O)cc3)csc2[nH]c1=O [A769662]
HDAC4/5/7 phosphorylation (HDAC4/5/7 [1]): increased HDAC4/5/7 phosphorylation

Cn1c(/C=C/C(=O)NO)ccc1/C=C/C(=O)c1cccc(F)c1 [MC1568]
expression of G6PAse (mRNA, qPCR) (G6PAse and PEPCK mRNA): suppresses the expression; also recorded: suppression
expression of PEPCK (mRNA, qPCR) (G6PAse and PEPCK mRNA): suppresses the expression; also recorded: suppression
blood glucose (db/db mice): lowers blood glucose; also recorded: suppression

CN(C)C(=N)N=C(N)N [metformin]
Phospho-Ser498 in HDAC4/5/7 (HDAC4/5/7 [2]): increase in Phospho-Ser498

[H]/N=C(/N)N/C(=N/[H])NCCc1ccccc1 [phenformin]
phosphorylation on Ser498 of HDACs4/5 (HDACs4/5): LKB1-dependent increase in phosphorylation

CC(/C=C/C(=O)NO)=C\[C@@H](C)C(=O)c1ccc(N(C)C)cc1 [trichostatin A]
FOXO1 acetylation (FOXO1): increased FOXO1 acetylation

glucagon
endogenous HDAC4/5/7 phosphorylation (HDAC4/5/7 [3]): rapid loss of endogenous HDAC4/5/7 phosphorylation
time to full nuclear translocation of GFP-tagged HDAC5 (GFP-HDAC5): ≤ 30 min
localization of endogenous Class IIa HDACs [4]: translocate fully into the nucleus
HDAC4/5/7 phosphorylation in liver (HDAC4/5/7 [5]): reduced HDAC4/5/7 phosphorylation

From US20140314788A1, “MODULATION OF HISTONE DEACETYLASES FOR THE TREATMENT OF METABOLIC DISEASE, METHODS AND COMPOSITIONS RELATED THERETO” (Salk Institute for Biological Studies, priority 2010, published 2014)
